Experimental data: PubChem BioAssay (NCI)
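Method: 48-hour compound exposure of cells in 96-well plates, five concentrations, linear interpolation of endpoints. Abbreviation: GI50, concentration required for 50% inhibition of growth. TGI is the concentration that stops growth completely.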

What was measured:
Test in all cases: NCI-60 cell line screen, 48 h
SF-268 CNS = system: SF-268 CNS
OVCAR-4 ovarian = system: OVCAR-4 ovarian
NCI-H226 lung = system: NCI-H226 lung
NCI/ADR-RES ovarian = system: NCI/ADR-RES ovarian
MALME-3M melanoma = system: MALME-3M melanoma
MDA-MB-435 = system: MDA-MB-435
BT-549 breast = system: BT-549 breast
LOX IMVI melanoma = system: LOX IMVI melanoma
SNB-19 CNS = system: SNB-19 CNS
HT29 colon = system: HT29 colon
CCRF-CEM leukemia = system: CCRF-CEM leukemia
ACHN renal = system: ACHN renal
SK-MEL-28 melanoma = system: SK-MEL-28 melanoma
NCI-H23 lung = system: NCI-H23 lung
MDA-MB-231 breast = system: MDA-MB-231 breast
COLO 205 colon = system: COLO 205 colon
TK-10 renal = system: TK-10 renal
HL-60(TB) leukemia = system: HL-60(TB) leukemia
HOP-92 NSCLC = system: HOP-92 NSCLC
A549 NSCLC = system: A549 NSCLC
UACC-257 melanoma = system: UACC-257 melanoma
OVCAR-8 ovarian = system: OVCAR-8 ovarian
A498 renal = system: A498 renal
SF-295 CNS = system: SF-295 CNS
DU-145 prostate = system: DU-145 prostate
HCT-15 colon = system: HCT-15 colon
CAKI-1 renal = system: CAKI-1 renal
IGROV1 ovarian = system: IGROV1 ovarian
KM12 colon = system: KM12 colon
HCT-116 colon = system: HCT-116 colon
NCI-H522 lung = system: NCI-H522 lung
HCC-2998 colon = system: HCC-2998 colon
RPMI-8226 leukemia = system: RPMI-8226 leukemia
SN12C renal = system: SN12C renal
UO-31 renal = system: UO-31 renal
MCF7 breast = system: MCF7 breast
K-562 leukemia = system: K-562 leukemia
SK-MEL-5 melanoma = system: SK-MEL-5 melanoma
SF-539 CNS = system: SF-539 CNS
SK-MEL-2 melanoma = system: SK-MEL-2 melanoma
UACC-62 melanoma = system: UACC-62 melanoma
OVCAR-5 ovarian = system: OVCAR-5 ovarian
U251 CNS = system: U251 CNS
T-47D breast = system: T-47D breast
SW-620 colon = system: SW-620 colon
SK-OV-3 ovarian = system: SK-OV-3 ovarian
M14 melanoma = system: M14 melanoma
EKVX NSCLC = system: EKVX NSCLC
MOLT-4 leukemia = system: MOLT-4 leukemia
SNB-75 CNS = system: SNB-75 CNS
786-0 renal = system: 786-0 renal
NCI-H460 lung = system: NCI-H460 lung
OVCAR-3 ovarian = system: OVCAR-3 ovarian
HS 578T breast = system: HS 578T breast
PC-3 prostate = system: PC-3 prostate
HOP-62 NSCLC = system: HOP-62 NSCLC

CC[C@H](C)[C@H](NC(=O)CN(C)C)C(=O)N(C)[C@H](C[C@@H](OC(C)=O)c1nc(C(=O)NC23CC(C(=O)OC)(C2)C3)cs1)C(C)C
GI50 (SF-268 CNS): 831 nM
TGI (SF-268 CNS): > 25000 nM
GI50 (OVCAR-4 ovarian): 4640 nM
TGI (OVCAR-4 ovarian): > 25000 nM
GI50 (NCI-H226 lung): > 25000 nM
TGI (NCI-H226 lung): > 25000 nM
GI50 (NCI/ADR-RES ovarian): > 21400 nM
TGI (NCI/ADR-RES ovarian): > 25000 nM
GI50 (MALME-3M melanoma): > 6280 nM
TGI (MALME-3M melanoma): > 25000 nM
GI50 (MDA-MB-435): 46.1 nM
TGI (MDA-MB-435): 298 nM
GI50 (BT-549 breast): 151 nM
TGI (BT-549 breast): > 13900 nM
GI50 (LOX IMVI melanoma): 276 nM
TGI (LOX IMVI melanoma): > 25000 nM
GI50 (SNB-19 CNS): 852 nM
TGI (SNB-19 CNS): > 25000 nM
GI50 (HT29 colon): 102 nM
TGI (HT29 colon): > 25000 nM
GI50 (CCRF-CEM leukemia): 93.2 nM
TGI (CCRF-CEM leukemia): > 25000 nM
GI50 (ACHN renal): 2280 nM
TGI (ACHN renal): > 25000 nM
GI50 (SK-MEL-28 melanoma): 3060 nM
TGI (SK-MEL-28 melanoma): > 25000 nM
GI50 (NCI-H23 lung): 1220 nM
TGI (NCI-H23 lung): > 25000 nM
GI50 (MDA-MB-231 breast): 287 nM
TGI (MDA-MB-231 breast): > 12200 nM
GI50 (COLO 205 colon): 144 nM
TGI (COLO 205 colon): 5590 nM
GI50 (TK-10 renal): > 25000 nM
TGI (TK-10 renal): > 25000 nM
GI50 (HL-60(TB) leukemia): 45.5 nM
TGI (HL-60(TB) leukemia): 181 nM
GI50 (HOP-92 NSCLC): > 25000 nM
TGI (HOP-92 NSCLC): > 25000 nM
GI50 (A549 NSCLC): 1620 nM
TGI (A549 NSCLC): > 25000 nM
GI50 (UACC-257 melanoma): > 25000 nM
TGI (UACC-257 melanoma): > 25000 nM
GI50 (OVCAR-8 ovarian): 460 nM
TGI (OVCAR-8 ovarian): > 25000 nM
GI50 (A498 renal): 1470 nM
TGI (A498 renal): > 25000 nM
GI50 (SF-295 CNS): 647 nM
TGI (SF-295 CNS): > 25000 nM
GI50 (DU-145 prostate): 183 nM
TGI (DU-145 prostate): > 25000 nM
GI50 (HCT-15 colon): 1010 nM
TGI (HCT-15 colon): > 25000 nM
GI50 (CAKI-1 renal): 12300 nM
TGI (CAKI-1 renal): > 25000 nM
GI50 (IGROV1 ovarian): 412 nM
TGI (IGROV1 ovarian): > 25000 nM
GI50 (KM12 colon): 478 nM
TGI (KM12 colon): > 25000 nM
GI50 (HCT-116 colon): 381 nM
TGI (HCT-116 colon): > 25000 nM
GI50 (NCI-H522 lung): 51.1 nM
TGI (NCI-H522 lung): > 7880 nM
GI50 (HCC-2998 colon): 490 nM
TGI (HCC-2998 colon): > 25000 nM
GI50 (RPMI-8226 leukemia): 84.5 nM
TGI (RPMI-8226 leukemia): > 25000 nM
GI50 (SN12C renal): 268 nM
TGI (SN12C renal): > 25000 nM
GI50 (UO-31 renal): 12600 nM
TGI (UO-31 renal): > 25000 nM
GI50 (MCF7 breast): 110 nM
TGI (MCF7 breast): > 25000 nM
GI50 (K-562 leukemia): 73.3 nM
TGI (K-562 leukemia): > 25000 nM
GI50 (SK-MEL-5 melanoma): 572 nM
TGI (SK-MEL-5 melanoma): 4000 nM
GI50 (SF-539 CNS): 307 nM
TGI (SF-539 CNS): 1560 nM
GI50 (SK-MEL-2 melanoma): 1510 nM
TGI (SK-MEL-2 melanoma): > 25000 nM
GI50 (UACC-62 melanoma): 237 nM
TGI (UACC-62 melanoma): > 25000 nM
GI50 (OVCAR-5 ovarian): > 6630 nM
TGI (OVCAR-5 ovarian): > 25000 nM
GI50 (U251 CNS): 417 nM
TGI (U251 CNS): > 25000 nM
GI50 (T-47D breast): > 25000 nM
TGI (T-47D breast): > 25000 nM
GI50 (SW-620 colon): 163 nM
TGI (SW-620 colon): > 25000 nM
GI50 (SK-OV-3 ovarian): 1640 nM
TGI (SK-OV-3 ovarian): > 25000 nM
GI50 (M14 melanoma): 99.5 nM
TGI (M14 melanoma): > 5780 nM
GI50 (EKVX NSCLC): 1530 nM
TGI (EKVX NSCLC): > 25000 nM
GI50 (MOLT-4 leukemia): 119 nM
TGI (MOLT-4 leukemia): > 25000 nM
GI50 (SNB-75 CNS): 88.3 nM
TGI (SNB-75 CNS): > 25000 nM
GI50 (786-0 renal): 741 nM
TGI (786-0 renal): > 25000 nM
GI50 (NCI-H460 lung): 408 nM
TGI (NCI-H460 lung): > 25000 nM
GI50 (OVCAR-3 ovarian): 80.4 nM
TGI (OVCAR-3 ovarian): > 7190 nM
GI50 (HS 578T breast): 125 nM
TGI (HS 578T breast): > 25000 nM
GI50 (PC-3 prostate): 804 nM
TGI (PC-3 prostate): > 25000 nM
GI50 (HOP-62 NSCLC): 2970 nM
TGI (HOP-62 NSCLC): > 25000 nM
